Assay results as given in US20070117858A1, “SUBSTITUTED 5-HETEROARYL-1-PHENYL-PYRAZOLE CANNABINOID MODULATORS” (priority 2005, published 2007).
pIC50: −log10 of the molar value. Like-named read-outs stand apart in the source and are kept apart here.

How the values were obtained:
human CB1 receptor = molecular target: T1, human CB1 receptor (Homo sapiens, UniProt P21554); assay: Cannabinoid CB1 receptor binding assay ([3H]-CP-55,940 displacement, SK-N-MC cell membranes); settings: for inhibition at 0.2 µM: 1.5 h, read-out: Cannabinoid CB1 Receptor Binding, percent inhibition
T1 construct: expressed in transfected cells; host or cells: SK-N-MC cells, stably transfected with pcDNA3 CB-1 (human); semi-purified membrane pellet
Protocol: (§1) Binding Assay for CB1 or CB2 Agonists or Inverse Agonists
(§2) The human CB1 and CB2 receptors were stably expressed in SK-N-MC cells transfected with pcDNA3 CB-1 (human) or pcDNA3 CB-2 (human). The cells were grown in T-180 cell culture flasks under standard cell culture conditions at 37° C. in a 5% CO2 atmosphere. The cells were harvested by trysinization and homogenized in a homogenization buffer (10 mM Tris, 0.2 mM MgCl2, 5 mM KCl, with protease inhibitors aprotinin, leupeptin, pepstatin A and bacitracin) and centrifuged (2000 g). The supernatant was then centrifuged in 2M sucrose (31,300 g) to produce a semi-purified membrane pellet. The pellet was resuspended in homogenization and stored at −80° C.
(§3) On the day of the assay, the pellet was thawed on ice and diluted in assay buffer (50 mM Tris-HCl, 5 mM MgCl2, 2.5 mM EDTA, 0.5 mg/mL fatty acid free bovine serum albumin, pH 7.5). The diluted membrane pellet was added with buffer, either a test compound or vehicle standard and the radioligand […] (0.2 nM) to the wells of a 96-well polypropylene plate. Non-specific binding was measured in wells containing W1N 55,212 (10 uM). The plate was covered and incubated for 90 minutes at 30° C. The contents were then aspirated onto a Packard Unifilter GF/C filter bottom plate prewet with 0.5% polyethyleneimine. The wells of the polypropylene plate were rinsed and aspirated seven times with a 0.9% saline-0.5% Tween 20 solution. The Unifilter plate was dried, scintillation cocktail was added to each well and the counts representing binding were quantitated in a TopCount scintillation counter.
(§4) For compounds tested, an IC50 binding value was obtained from percent inhibition studies in which various test concentrations were used. The binding value was calculated by linear regression.
(§5) For compounds without an IC50 binding value, the percent inhibition (%) was obtained at a test concentration of 0.2 μM.

human CB2 receptor = molecular target: T2, human CB2 receptor (Homo sapiens, UniProt P34972); assay: Cannabinoid CB2 receptor binding assay ([3H]-CP-55,940 displacement, SK-N-MC cell membranes); settings: 1.5 h; test concentration of 0.2 μM; radioligand CP-55,940 0.2 nM; read-out: Cannabinoid CB2 Receptor Binding, percent inhibition
T2 construct: expressed in transfected cells; host or cells: SK-N-MC cells, stably transfected with pcDNA3 CB-2 (human); semi-purified membrane pellet
Protocol: as §1, §2, §3, §4, §5

T1 sequence (P21554 whole entry): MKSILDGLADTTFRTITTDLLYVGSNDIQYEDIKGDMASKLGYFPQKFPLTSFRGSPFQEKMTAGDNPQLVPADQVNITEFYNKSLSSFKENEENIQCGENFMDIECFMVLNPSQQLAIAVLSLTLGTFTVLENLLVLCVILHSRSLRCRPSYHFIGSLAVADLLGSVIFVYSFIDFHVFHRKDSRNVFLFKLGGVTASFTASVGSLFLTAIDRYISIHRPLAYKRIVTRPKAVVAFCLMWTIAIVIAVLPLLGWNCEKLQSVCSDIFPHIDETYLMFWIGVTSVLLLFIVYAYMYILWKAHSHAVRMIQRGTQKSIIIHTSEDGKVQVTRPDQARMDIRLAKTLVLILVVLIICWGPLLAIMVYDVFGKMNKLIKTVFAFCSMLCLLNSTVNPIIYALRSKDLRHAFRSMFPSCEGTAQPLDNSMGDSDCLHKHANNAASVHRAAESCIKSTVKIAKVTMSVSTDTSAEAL
T2 sequence (P34972 whole entry): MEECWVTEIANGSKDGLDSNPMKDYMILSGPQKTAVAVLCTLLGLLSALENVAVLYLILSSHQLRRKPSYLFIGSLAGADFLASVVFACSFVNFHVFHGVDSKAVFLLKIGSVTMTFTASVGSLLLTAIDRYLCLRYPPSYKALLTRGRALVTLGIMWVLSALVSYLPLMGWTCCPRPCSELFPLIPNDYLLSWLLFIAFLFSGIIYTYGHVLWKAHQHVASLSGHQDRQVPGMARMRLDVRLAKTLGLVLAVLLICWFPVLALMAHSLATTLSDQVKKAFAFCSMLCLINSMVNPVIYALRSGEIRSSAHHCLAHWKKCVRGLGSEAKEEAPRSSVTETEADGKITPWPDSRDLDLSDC

| Structure (SMILES) | inhibition at 0.2 µM (human CB1 receptor) [%] | inhibition at 0.2 µM (human CB2 receptor) [%] | pIC50 (human CB1 receptor) | pIC50 (human CB1 receptor; from percent inhibition studies at various test concentrations, calculated by linear regression, radioligand CP-55,940 0.2 nM, read-out: Cannabinoid CB1 Receptor Binding, IC50 binding value) |
| --- | --- | --- | --- | --- |
| CCc1c(C(=O)N[C@H](C)c2ccccc2)nn(-c2ccc(Cl)cc2Cl)c1-c1ccc(Br)s1 [Cpd 40, 5-(5-bromo-thiophen-2-yl)-1-(2,4-dichloro-phenyl)-4-ethyl-1H-pyrazole-3-carboxylic acid [(1R)-1-phenyl-ethyl]-amide] | 78 | 52 | – | – |
| CCc1c(C(=O)N[C@@H](C)c2ccccn2)nn(-c2ccc(Cl)cc2Cl)c1-c1ccc(Br)s1 [Cpd 41, 5-(5-bromo-thiophen-2-yl)-1-(2,4-dichloro-phenyl)-4-ethyl-1H-pyrazole-3-carboxylic acid [(1S)-1-pyridin-2-yl-ethyl]-amide] | – | 45 | 7.82 | – |
| CCc1c(C(=O)N[C@@H](C)c2ccccc2)nn(-c2ccc(Cl)cc2Cl)c1-c1ccc(Br)s1 [Cpd 42, 5-(5-bromo-thiophen-2-yl)-1-(2,4-dichloro-phenyl)-4-ethyl-1H-pyrazole-3-carboxylic acid [(1S)-1-phenyl-ethyl]-amide] | – | 38 | 7.96 | – |
| CCc1c(C(=O)N[C@@H](C)C2CCCCC2)nn(-c2ccc(Cl)cc2Cl)c1-c1ccc(Br)s1 [Cpd 43, 5-(5-bromo-thiophen-2-yl)-1-(2,4-dichloro-phenyl)-4-ethyl-1H-pyrazole-3-carboxylic acid [(1S)-1-cyclohexyl-ethyl]-amide] | – | 39 | 8.10 | – |
| Cc1c(C(=O)NN2CCCCC2)nn(-c2ccc(Cl)cc2Cl)c1-c1cc(Br)cs1 [Cpd 44, 5-(4-bromo-thiophen-2-yl)-1-(2,4-dichloro-phenyl)-4-methyl-1H-pyrazole-3-carboxylic acid piperidin-1-ylamide] | 74 | 53 | – | – |
| Cc1c(C(=O)N2CCCCC2)nn(-c2ccc(Cl)cc2Cl)c1-c1cc(Br)cs1 [Cpd 45, [5-(4-bromo-thiophen-2-yl)-1-(2,4-dichloro-phenyl)-4-methyl-1H-pyrazol-3-yl]-piperidin-1-yl-methanone] | 33 | 12 | – | – |
| Cc1c(C(=O)N[C@@H](C)c2ccccc2)nn(-c2ccc(Cl)cc2Cl)c1-c1cc(Br)cs1 [Cpd 46, 5-(4-bromo-thiophen-2-yl)-1-(2,4-dichloro-phenyl)-4-methyl-1H-pyrazole-3-carboxylic acid [(1S)-1-phenyl-ethyl]-amide] | 52 | 47 | – | – |
| Cc1c(C(=O)N[C@@H](C)c2ccccn2)nn(-c2ccc(Cl)cc2Cl)c1-c1cc(Br)cs1 [Cpd 47, 5-(4-bromo-thiophen-2-yl)-1-(2,4-dichloro-phenyl)-4-methyl-1H-pyrazole-3-carboxylic acid [(1S)-1-pyridin-2-yl-ethyl]-amide] | 56 | 46 | – | – |
| Cc1c(C(=O)N[C@@H](C)C2CCCCC2)nn(-c2ccc(Cl)cc2Cl)c1-c1cc(Br)cs1 [Cpd 48, 5-(4-bromo-thiophen-2-yl)-1-(2,4-dichloro-phenyl)-4-methyl-1H-pyrazole-3-carboxylic acid [(1S)-1-cyclohexyl-ethyl]-amide] | 60 | 49 | – | – |
| Cc1c(C(=O)N[C@H](C)c2ccccc2)nn(-c2ccc(Cl)cc2Cl)c1-c1cc(Br)cs1 [Cpd 49, 5-(4-bromo-thiophen-2-yl)-1-(2,4-dichloro-phenyl)-4-methyl-1H-pyrazole-3-carboxylic acid [(1R)-1-phenyl-ethyl]-amide] | 76 | 63 | – | – |
| CCc1c(C(=O)N2CCC(O)CC2)nn(-c2ccc(Cl)cc2Cl)c1-c1ccc(Br)s1 [Cpd 50, [5-(5-bromo-thiophen-2-yl)-1-(2,4-dichloro-phenyl)-4-ethyl-1H-pyrazol-3-yl]-(4-hydroxy-piperidin-1-yl)-methanone] | 28 | 17 | – | – |
| CCc1c(C(=O)NN2CCC(O)CC2)nn(-c2ccc(Cl)cc2Cl)c1-c1ccc(Br)s1 [Cpd 51, 5-(5-bromo-thiophen-2-yl)-1-(2,4-dichloro-phenyl)-4-ethyl-1H-pyrazole-3-carboxylic acid (4-hydroxy-piperidin-1-yl)-amide] | 63 | 13 | – | – |
| CCc1c(C(=O)N[N+]2(C)CCCCC2)nn(-c2ccc(Cl)cc2Cl)c1-c1ccc(Br)s1 [Cpd 52, 1-{[5-(5-bromo-thiophen-2-yl)-1-(2,4-dichloro-phenyl)-4-ethyl-1H-pyrazole-3-carbonyl]-amino}-1-methyl-piperidinium] | 51 | 0 | – | – |
| Cc1ccc(-c2c(C)c(C(=O)NN3CCCCC3)nn2-c2ccc(Cl)cc2Cl)o1 [Cpd 53, 1-(2,4-dichloro-phenyl)-4-methyl-5-(5-methyl-furan-2-yl)-1H-pyrazole-3-carboxylic acid piperidin-1-ylamide] | 40 | 21 | – | – |
| Cc1ccc(-c2c(C)c(C(=O)N[C@@H](C)c3ccccc3)nn2-c2ccc(Cl)cc2Cl)o1 [Cpd 54, 1-(2,4-dichloro-phenyl)-4-methyl-5-(5-methyl-furan-2-yl)-1H-pyrazole-3-carboxylic acid [(1S)-1-phenyl-ethyl]-amide] | – | 52 | – | 6.85 |
| Cc1ccc(-c2c(C)c(C(=O)N[C@H](C)c3ccccc3)nn2-c2ccc(Cl)cc2Cl)o1 [Cpd 55, 1-(2,4-dichloro-phenyl)-4-methyl-5-(5-methyl-furan-2-yl)-1H-pyrazole-3-carboxylic acid [(1R)-1-phenyl-ethyl]-amide] | 58 | 30 | – | – |
| Cc1ccc(-c2c(C)c(C(=O)N[C@H](C)c3ccccn3)nn2-c2ccc(Cl)cc2Cl)o1 [Cpd 56, 1-(2,4-dichloro-phenyl)-4-methyl-5-(5-methyl-furan-2-yl)-1H-pyrazole-3-carboxylic acid [(1R)-1-pyridin-2-yl-ethyl]-amide] | 41 | 26 | – | – |
| Cc1ccc(-c2c(C)c(C(=O)N[C@H](C)C3CCCCC3)nn2-c2ccc(Cl)cc2Cl)o1 [Cpd 57, 1-(2,4-dichloro-phenyl)-4-methyl-5-(5-methyl-furan-2-yl)-1H-pyrazole-3-carboxylic acid [(1R)-1-cyclohexyl-ethyl]-amide] | 46 | 28 | – | – |
